# Assay results from paper doi:10.1101/2024.08.19.608619, “Discovery of potent SARS-CoV-2 nsp3 macrodomain inhibitors uncovers lack of translation to cellular antiviral response” (bioRxiv, 2024).
# Like-named read-outs stand apart in the source and are kept apart here.
# Tests used:
# [1] = biological target: T1, SARS-CoV-2 nsp3-mac1 (Severe acute respiratory syndrome coronavirus 2, UniProt P0DTD1); experiment: biochemical; design: SARS-CoV-2 nsp3 macrodomain TR-FRET single point, per cent inhibition, n=2
# [2] = biological target: T1, SARS-CoV-2 nsp3-mac1; experiment: biochemical; format: biochemical; details: SARS-CoV-2 nsp3 macrodomain TR-FRET single point, n=2
# [3] = read-out: perc_inhibition_mean, batch_name=ASAP-0000285-001
# [4] = read-out: perc_inhibition_mean, batch_name=ASAP-0000286-001
# [5] = read-out: perc_inhibition_mean, batch_name=ASAP-0000287-001
# [6] = read-out: perc_inhibition_mean, batch_name=ASAP-0000288-001
# [7] = read-out: perc_inhibition_mean, batch_name=ASAP-0000289-001
# [8] = read-out: perc_inhibition_mean, batch_name=ASAP-0000290-001
# [9] = read-out: perc_inhibition_mean, batch_name=ASAP-0000291-001
# [10] = read-out: perc_inhibition_mean, batch_name=ASAP-0000292-001
# [11] = read-out: perc_inhibition_mean, batch_name=ASAP-0000293-001
# [12] = read-out: perc_inhibition_mean, batch_name=ASAP-0000294-001
# [13] = read-out: perc_inhibition_mean, batch_name=ASAP-0000295-001
# [14] = read-out: perc_inhibition_mean, batch_name=ASAP-0000296-001
# [15] = read-out: perc_inhibition_mean, batch_name=ASAP-0000297-001
# [16] = read-out: perc_inhibition_mean, batch_name=ASAP-0000298-001
# [17] = read-out: perc_inhibition_mean, batch_name=ASAP-0000299-001
# [18] = read-out: perc_inhibition_mean, batch_name=ASAP-0000300-001
# [19] = read-out: perc_inhibition_mean, batch_name=ASAP-0000301-001
# [20] = read-out: perc_inhibition_mean, batch_name=ASAP-0000302-001
# [21] = read-out: perc_inhibition_mean, batch_name=ASAP-0000303-001
# [22] = read-out: perc_inhibition_mean, batch_name=ASAP-0000304-001
# [23] = read-out: perc_inhibition_mean, batch_name=ASAP-0000305-001
# [24] = read-out: perc_inhibition_mean, batch_name=ASAP-0000306-001
# [25] = read-out: perc_inhibition_mean, batch_name=ASAP-0000307-001
# [26] = read-out: perc_inhibition_mean, batch_name=ASAP-0000308-001
# [27] = read-out: perc_inhibition_mean, batch_name=ASAP-0000309-001
# [28] = read-out: perc_inhibition_mean, batch_name=ASAP-0000310-001
# [29] = read-out: perc_inhibition_mean, batch_name=ASAP-0000311-001
# [30] = read-out: perc_inhibition_mean, batch_name=ASAP-0000312-001
# [31] = read-out: perc_inhibition_mean, batch_name=ASAP-0000313-001
# [32] = read-out: perc_inhibition_mean, batch_name=ASAP-0000314-001
# [33] = read-out: perc_inhibition_mean, batch_name=ASAP-0000315-001
# [34] = read-out: perc_inhibition_mean, batch_name=ASAP-0000316-001
# [35] = read-out: perc_inhibition_mean, batch_name=ASAP-0000317-001
# [36] = read-out: perc_inhibition_mean, batch_name=ASAP-0000318-001
# [37] = read-out: perc_inhibition_mean, batch_name=ASAP-0000319-001
Structure (SMILES),perc_inhibition_mean ([2]; concentration 49.75 uM),perc_inhibition_mean ([2]; concentration 99.5 uM),further results
O=C(c1ncc[nH]1)N1CCC(c2ccn3ncc(C(=O)N4CCCCC4)c3c2)CC1 [ASAP-0000285],18.474%,37.203%,"inhibition at 49.75 µM [1, 3]: 18.5%; inhibition at 99.5 µM [1, 3]: 37.2%"
CCn1cnc(Nc2ncnc3c2ncn3Cc2cc(OC)no2)c1 [ASAP-0000286],-16.725%,-12.789%,"inhibition at 49.75 µM [1, 4]: -16.7%; inhibition at 99.5 µM [1, 4]: -12.8%"
O=C(Nc1ccccc1)Nc1ccc(C(=O)N2CCc3ccncc32)cc1 [ASAP-0000287],-4.305%,0.234%,"inhibition at 49.75 µM [1, 5]: -4.3%; inhibition at 99.5 µM [1, 5]: 0.234%"
O=C(Nc1ccccc1)Nc1ccc(C(=O)N2CCOCC23CCC3)cc1 [ASAP-0000288],-5.176%,-3.184%,"inhibition at 49.75 µM [1, 6]: -5.18%; inhibition at 99.5 µM [1, 6]: -3.18%"
C[C@H](NC(=O)c1ccc(NC(=O)Nc2ccccc2)cc1)[C@@H]1CCCO1 [ASAP-0000289],-4.279%,-4.858%,"inhibition at 49.75 µM [1, 7]: -4.28%; inhibition at 99.5 µM [1, 7]: -4.86%"
O=C1C[C@H](CNC(=O)c2ccc(NC(=O)Nc3ccccc3)cc2)CCN1 [ASAP-0000290],1.223%,4.013%,"inhibition at 49.75 µM [1, 8]: 1.22%; inhibition at 99.5 µM [1, 8]: 4.01%"
C[C@H](NC(=O)c1ccc(NC(=O)Nc2ccccc2)cc1)c1ccccn1 [ASAP-0000291],2.448%,0.349%,"inhibition at 49.75 µM [1, 9]: 2.45%; inhibition at 99.5 µM [1, 9]: 0.349%"
CN(C(=O)c1ccc(NC(=O)Nc2ccccc2)cc1)[C@@H]1CN2CCC1CC2 [ASAP-0000292],-4.01%,2.773%,"inhibition at 49.75 µM [1, 10]: -4.01%; inhibition at 99.5 µM [1, 10]: 2.77%"
CN1CCO[C@H](CNC(=O)c2ccc(NC(=O)Nc3ccccc3)cc2)C1 [ASAP-0000293],-0.616%,3.272%,"inhibition at 49.75 µM [1, 11]: -0.616%; inhibition at 99.5 µM [1, 11]: 3.27%"
Nc1ncnc2c1ncn2Cc1cccc2ncnn12 [ASAP-0000294],-0.553%,-3.161%,"inhibition at 49.75 µM [1, 12]: -0.553%; inhibition at 99.5 µM [1, 12]: -3.16%"
O=C(Nc1ccccc1)Nc1ccc(C(=O)N2CCc3nc[nH]c3C2)cc1 [ASAP-0000295],-3.024%,-2.379%,"inhibition at 49.75 µM [1, 13]: -3.02%; inhibition at 99.5 µM [1, 13]: -2.38%"
O=C(Nc1ccccc1)Nc1ccc(C(=O)N[C@H]2CC[C@H](CO)CC2)cc1 [ASAP-0000296],-0.639%,-2.577%,"inhibition at 49.75 µM [1, 14]: -0.639%; inhibition at 99.5 µM [1, 14]: -2.58%"
CC1(C)CN(C(=O)c2ccc(NC(=O)Nc3ccccc3)cc2)C[C@@]1(F)C(=O)O [ASAP-0000297],-2.566%,-5.193%,"inhibition at 49.75 µM [1, 15]: -2.57%; inhibition at 99.5 µM [1, 15]: -5.19%"
O=C(CCN(Cc1cccc(Cl)c1)C(=O)C1(F)CCCCC1)N1CCNCC1 [ASAP-0000298],-3.576%,0.185%,"inhibition at 49.75 µM [1, 16]: -3.58%; inhibition at 99.5 µM [1, 16]: 0.185%"
CCN(Cc1cccnc1)C(=O)c1ccc(NC(=O)Nc2ccccc2)cc1 [ASAP-0000299],3.632%,-7.091%,"inhibition at 49.75 µM [1, 17]: 3.63%; inhibition at 99.5 µM [1, 17]: -7.09%"
Cc1n[nH]cc1CN(C)C(=O)c1ccc(NC(=O)Nc2ccccc2)cc1 [ASAP-0000300],-3.77%,-0.031%,"inhibition at 49.75 µM [1, 18]: -3.77%; inhibition at 99.5 µM [1, 18]: -0.031%"
C[C@@H]1CN(C(=O)c2ccc(NC(=O)Nc3ccccc3)cc2)CC(=O)N1 [ASAP-0000301],-0.707%,0.29%,"inhibition at 49.75 µM [1, 19]: -0.707%; inhibition at 99.5 µM [1, 19]: 0.29%"
C[C@@H]1[C@H](O)CCCN1C(=O)c1ccc(NC(=O)Nc2ccccc2)cc1 [ASAP-0000302],-2.963%,-2.724%,"inhibition at 49.75 µM [1, 20]: -2.96%; inhibition at 99.5 µM [1, 20]: -2.72%"

Structure (SMILES),perc_inhibition_mean ([2]; concentration 49.75 uM),perc_inhibition_mean ([2]; concentration 99.5 uM),further results
O=C(Nc1ccccc1)Nc1ccc(C(=O)N2CCn3nccc3C2)cc1 [ASAP-0000303],-3.111%,2.299%,"inhibition at 49.75 µM [1, 21]: -3.11%; inhibition at 99.5 µM [1, 21]: 2.3%"
O=C(Nc1ccccc1)Nc1ccc(C(=O)NCc2ccnc(F)c2)cc1 [ASAP-0000304],-0.36%,4.92%,"inhibition at 49.75 µM [1, 22]: -0.36%; inhibition at 99.5 µM [1, 22]: 4.92%"
CC1(C)CNCCN1C(=O)c1ccc(NC(=O)Nc2ccccc2)cc1 [ASAP-0000305],2.242%,1.393%,"inhibition at 49.75 µM [1, 23]: 2.24%; inhibition at 99.5 µM [1, 23]: 1.39%"
NCC(F)(F)CNC(=O)c1ccc(NC(=O)Nc2ccccc2)cc1 [ASAP-0000306],-0.965%,-1.174%,"inhibition at 49.75 µM [1, 24]: -0.965%; inhibition at 99.5 µM [1, 24]: -1.17%"
Cn1cc(NC(=O)c2ccc(NC(=O)Nc3ccccc3)cc2)c(C#N)n1 [ASAP-0000307],2.492%,-0.539%,"inhibition at 49.75 µM [1, 25]: 2.49%; inhibition at 99.5 µM [1, 25]: -0.539%"
O=C(Nc1ccccc1)Nc1ccc(C(=O)NCCc2cccnc2)cc1 [ASAP-0000308],1.269%,10.372%,"inhibition at 49.75 µM [1, 26]: 1.27%; inhibition at 99.5 µM [1, 26]: 10.4%"
COc1cccc(NC(=O)c2ccc(NC(=O)Nc3ccccc3)cc2)n1 [ASAP-0000309],4.647%,5.367%,"inhibition at 49.75 µM [1, 27]: 4.65%; inhibition at 99.5 µM [1, 27]: 5.37%"
O=C(O)c1sccc1C(=O)N1CCC(c2ccn3ncc(C(=O)N4CCCCC4)c3c2)CC1 [ASAP-0000310],55.49%,71.528%,"inhibition at 49.75 µM [1, 28]: 55.5%; inhibition at 99.5 µM [1, 28]: 71.5%"
O=C(CCN(Cc1cccc(Cl)c1)C(=O)c1ccccc1F)N1CCNCC1 [ASAP-0000311],-0.625%,0.395%,"inhibition at 49.75 µM [1, 29]: -0.625%; inhibition at 99.5 µM [1, 29]: 0.395%"
C[C@]1(C(=O)N(CCC(=O)N2CCNCC2)Cc2cccc(Cl)c2)CCCN1 [ASAP-0000312],1.403%,2.129%,"inhibition at 49.75 µM [1, 30]: 1.4%; inhibition at 99.5 µM [1, 30]: 2.13%"
O=C(Nc1ccccc1)Nc1ccc(C(=O)Nc2ncccc2F)cc1 [ASAP-0000313],4.588%,10.201%,"inhibition at 49.75 µM [1, 31]: 4.59%; inhibition at 99.5 µM [1, 31]: 10.2%"
Cc1ncc(C(=O)N(CCC(=O)N2CCNCC2)Cc2cccc(Cl)c2)cc1N [ASAP-0000314],1.351%,1.305%,"inhibition at 49.75 µM [1, 32]: 1.35%; inhibition at 99.5 µM [1, 32]: 1.3%"
CC(C)c1c[nH]nc1NC(=O)c1ccc(NC(=O)Nc2ccccc2)cc1 [ASAP-0000315],6.988%,8.502%,"inhibition at 49.75 µM [1, 33]: 6.99%; inhibition at 99.5 µM [1, 33]: 8.5%"
CCc1n[nH]c(NC(=O)c2ccc(NC(=O)Nc3ccccc3)cc2)c1Br [ASAP-0000316],-5.574%,0.467%,"inhibition at 49.75 µM [1, 34]: -5.57%; inhibition at 99.5 µM [1, 34]: 0.467%"
O=C(Nc1ccccc1)Nc1ccc(C(=O)Nc2nnc(C(F)(F)F)[nH]2)cc1 [ASAP-0000317],-3.198%,-1.459%,"inhibition at 49.75 µM [1, 35]: -3.2%; inhibition at 99.5 µM [1, 35]: -1.46%"
O=C(CCN(Cc1cccc(Cl)c1)C(=O)c1c[nH]c(=O)cn1)N1CCNCC1 [ASAP-0000318],-2.705%,0.98%,"inhibition at 49.75 µM [1, 36]: -2.71%; inhibition at 99.5 µM [1, 36]: 0.98%"
Nc1ncc(C(=O)N(CCC(=O)N2CCNCC2)Cc2cccc(Cl)c2)cn1 [ASAP-0000319],-2.76%,-1.726%,"inhibition at 49.75 µM [1, 37]: -2.76%; inhibition at 99.5 µM [1, 37]: -1.73%"
